This is an account of results in patent US5395838A, “6-substituted quinazolines processing anti-tumor activity” (Imperial Chemical Industries PLC, priority 1988, dated 1995).

Where two headings read alike, the source gives them in different places.

The target of one data set is T1, thymidylate synthase (Mus musculus, UniProt P07607).
T1 construct: obtained in partially purified form from L1210 mouse leukaemia cells; endogenous in cells; host or cells: L1210 mouse leukaemia cells (enzyme partially purified)
In words: Test (a): in vitro inhibition of the enzyme thymidylate synthase (partially purified from L1210 mouse leukaemia cells). Type of data set: biochemical. The text has this:
(a) An in vitro assay which determines the ability of a test compound to inhibit the enzyme thymidylate synthase.

The subject of a further data set is L1210. In words: Test (b): inhibition of the growth of the leukaemia cell line L1210 in cell culture. In kind it is cell-based. The note with it: Mus musculus, read-out: IC50 against the L1210 cell line [Test (b)]. The text has this: (b) An assay which determines the ability of a test compound to inhibit the growth of the leukaemia cell line L1210 in cell culture. The test is similar to that described in UK Patent Specification No. 2065653B;

Data set [1] has as its system human breast, ovarian and liver cancer. The note with it: clinical trials; cited from earlier work.
The conditions of data set [2]: particularly in relation to the liver and kidney; cited from earlier work.

T1 sequence (P07607 whole entry): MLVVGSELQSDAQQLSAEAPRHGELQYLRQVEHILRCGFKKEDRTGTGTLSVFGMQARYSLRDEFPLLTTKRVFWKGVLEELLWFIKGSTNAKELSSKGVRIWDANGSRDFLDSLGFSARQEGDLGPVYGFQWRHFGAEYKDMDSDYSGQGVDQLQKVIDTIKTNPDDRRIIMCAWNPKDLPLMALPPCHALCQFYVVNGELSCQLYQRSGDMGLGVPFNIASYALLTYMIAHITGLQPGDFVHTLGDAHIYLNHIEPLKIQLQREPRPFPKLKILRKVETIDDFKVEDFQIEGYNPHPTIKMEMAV

As for `C#CCN(Cc1ccc2nc(C)[nH]c(=O)c2c1)c1ccc(C(=O)NCc2ccccc2[N+](=O)[O-])cc1` [p-[N-(3,4-dihydro-2-methyl-4-oxoquinazolin-6-ylmethyl)-N-(prop-2-ynyl)amino]-N-(2-nitrobenzyl)benzamide], the IC50 was 50 nM at thymidylate synthase and 1800 nM in the data set on L1210.

As for `C#CCN(Cc1ccc2nc(N)[nH]c(=O)c2c1)c1ccc(C(=O)N[C@@H](CCC(=O)O)C(=O)O)cc1` [CB3717], the “activity against human breast, ovarian and liver cancer” value in data set [1] is “promising activity against human breast, ovarian and liver cancer”. In addition, the “symptoms of toxicity in humans” value in data set [2] was “shows symptoms of toxicity in humans, particularly in relation to the liver and kidney”.

Turning to `C#CCN(Cc1ccc2nc(C)nc(O)c2c1)c1ccc(C(=O)NCc2ccccn2)cc1` [p-[N-(3,4-dihydro-2-methyl-4-oxoquinazolin-6-ylmethyl)-N-(prop-2-ynyl)amino]-N-(2-pyridylmethyl)benzamide], the IC50 on thymidylate synthase (enzyme from L1210 mouse leukaemia cells, read-out: IC50 against thymidylate synthase [Test (a)]) came out at 500 nM; in the data set with L1210, 3900 nM.

As usually defined, the IC50 is the concentration needed to halve the response being measured.
